# Measurements taken from patent US8796289B2 (AbbVie Inc., priority 2011, dated 2014).
# Target: GST-tagged-Wee1 kinase (Homo sapiens, UniProt P30291)
# Test: Wee1 time-resolved fluorescence equilibrium binding assay (displacement of Oregon Green-labeled ATP-competitive kinase probe)
# Method: Wee1 kinase was assayed using a time-resolved fluorescence equilibrium binding assay monitoring displacement of a rapidly reversible Oregon Green-labeled ATP-competitive kinase probe (N-(2-(2-(2-(4-(4-(5-chloro-4-(2-(1-hydroxycyclobutyl)thiazol-5-yl)-1H-pyrrolo[2,3-b]pyridin-2-yl)phenyl)piperazin-1-yl)ethoxy)ethoxy)ethyl)-2′,7′-difluoro-3′,6′-dihydroxy-3-oxo-3H-spiro[isobenzofuran-1,9′-xanthene]-5-carboxamide) by competitive Wee1 inhibitors.
# Chain of GST-tagged-Wee1 kinase (P30291 whole entry): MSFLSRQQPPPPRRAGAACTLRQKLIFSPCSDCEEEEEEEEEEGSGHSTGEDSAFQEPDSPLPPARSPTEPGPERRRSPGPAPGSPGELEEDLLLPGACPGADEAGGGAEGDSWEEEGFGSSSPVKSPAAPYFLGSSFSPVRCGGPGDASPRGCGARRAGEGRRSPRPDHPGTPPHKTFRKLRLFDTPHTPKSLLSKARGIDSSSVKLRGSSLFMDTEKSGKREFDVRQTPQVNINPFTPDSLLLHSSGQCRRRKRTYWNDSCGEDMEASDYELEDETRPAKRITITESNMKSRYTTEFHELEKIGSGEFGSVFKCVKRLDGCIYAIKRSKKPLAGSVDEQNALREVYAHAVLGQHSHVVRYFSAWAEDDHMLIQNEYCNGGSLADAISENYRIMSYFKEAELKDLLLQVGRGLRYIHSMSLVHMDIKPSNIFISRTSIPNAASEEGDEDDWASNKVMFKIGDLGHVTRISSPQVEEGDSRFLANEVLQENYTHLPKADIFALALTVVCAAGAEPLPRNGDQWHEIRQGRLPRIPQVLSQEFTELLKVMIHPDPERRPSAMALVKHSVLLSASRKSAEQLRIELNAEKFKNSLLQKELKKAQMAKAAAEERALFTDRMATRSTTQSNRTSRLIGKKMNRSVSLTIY
row,Ki [nM],Compound
1,1.2,"COC(=O)c1ccc(-c2nn(-c3c(Cl)cccc3Cl)c(=O)c3cnc(Nc4ccc(N5CCN(C)CC5)cc4)nc23)cc1 [Example 277, methyl 4-[6-(2,6-dichlorophenyl)-2-{[4-(4-methylpiperazin-1-yl)phenyl]amino}-5-oxo-5,6-dihydropyrimido[4,5-d]pyridazin-8-yl]benzoate]"
2,0.83,"CN1CCN(c2ccc(Nc3ncc4c(=O)n(-c5c(Cl)cccc5Cl)nc(C5CCC5)c4n3)cc2)CC1 [Example 278, 8-cyclobutyl-6-(2,6-dichlorophenyl)-2-{[4-(4-methylpiperazin-1-yl)phenyl]amino}pyrimido[4,5-d]pyridazin-5(6H)-one]"
3,1.2,"O=c1c2cnc(Nc3ccc(N4CCNCC4)cc3)nc2c(C2CCC2)nn1-c1c(Cl)cccc1Cl [Example 279, 8-cyclobutyl-6-(2,6-dichlorophenyl)-2-{[4-(piperazin-1-yl)phenyl]amino}pyrimido[4,5-d]pyridazin-5(6H)-one]"
4,0.51,"CN1Cc2cc(Nc3ncc4c(=O)n(-c5c(Cl)cccc5Cl)nc(C5CCC5)c4n3)ccc2C2(CC2)C1 [Example 280, 8-cyclobutyl-6-(2,6-dichlorophenyl)-2-[(2′-methyl-2′,3′-dihydro-1′H-spiro[cyclopropane-1,4′-isoquinolin]-7′-yl)amino]pyrimido[4,5-d]pyridazin-5(6H)-one]"
5,0.53,"O=c1c2cnc(Nc3ccc4c(c3)CNCC43CC3)nc2c(C2CCC2)nn1-c1c(Cl)cccc1Cl [Example 281, 8-cyclobutyl-6-(2,6-dichlorophenyl)-2-(2′,3′-dihydro-1′H-spiro[cyclopropane-1,4′-isoquinolin]-7′-ylamino)pyrimido[4,5-d]pyridazin-5(6H)-one]"
6,58,"CN1CCN(c2ccc(Nc3ncc4c(=O)n(C5CCC5)nc(-c5ccncc5)c4n3)cc2)CC1 [Example 282, 6-cyclobutyl-2-{[4-(4-methylpiperazin-1-yl)phenyl]amino}-8-(pyridin-4-yl)pyrimido[4,5-d]pyridazin-5(6H)-one]"
7,30,"CC1(C)CNCc2cc(Nc3ncc4c(=O)n(CCO)nc(-c5ccccn5)c4n3)ccc21 [Example 283, 2-[(4,4-dimethyl-1,2,3,4-tetrahydroisoquinolin-7-yl)amino]-6-(2-hydroxyethyl)-8-(pyridin-2-yl)pyrimido[4,5-d]pyridazin-5(6H)-one]"
8,0.36,"O=c1c2cnc(Nc3ccc(N4CCNCC4)cc3)nc2c(-c2ccccn2)nn1-c1c(Cl)cccc1Cl [Example 284, 6-(2,6-dichlorophenyl)-2-{[4-(piperazin-1-yl)phenyl]amino}-8-(pyridin-2-yl)pyrimido[4,5-d]pyridazin-5(6H)-one]"
9,8.4,"O=c1c2cnc(Nc3ccc(N4CCNCC4)cc3)nc2c(-c2ccccn2)nn1-c1ccccn1 [Example 285, 2-{[4-(piperazin-1-yl)phenyl]amino}-6,8-di(pyridin-2-yl)pyrimido[4,5-d]pyridazin-5(6H)-one]"
10,9.4,"O=c1c2cnc(Nc3ccc(N4CCNCC4)cc3)nc2c(-c2ccccn2)nn1-c1cccc2ccccc12 [Example 286, 6-(naphthalen-1-yl)-2-{[4-(piperazin-1-yl)phenyl]amino}-8-(pyridin-2-yl)pyrimido[4,5-d]pyridazin-5(6H)-one]"
11,11,CN1Cc2cc(Nc3ncc4c(=O)n(-c5ccccn5)nc(-c5ccccn5)c4n3)ccc2C(C)(C)C1 [Example 287]
12,172,"CC(O)Cn1nc(-c2ccccn2)c2nc(Nc3ccc4c(c3)CN(C)CC4(C)C)ncc2c1=O (stereo not drawn) [Example 288, 6-(2-hydroxypropyl)-8-(pyridin-2-yl)-2-[(2,4,4-trimethyl-1,2,3,4-tetrahydroisoquinolin-7-yl)amino]pyrimido[4,5-d]pyridazin-5(6H)-one]"
13,81,"CC(O)Cn1nc(-c2ccccn2)c2nc(Nc3ccc(N4CCNCC4)cc3)ncc2c1=O (stereo not drawn) [Example 289, 6-(2-hydroxypropyl)-2-{[4-(piperazin-1-yl)phenyl]amino}-8-(pyridin-2-yl)pyrimido[4,5-d]pyridazin-5(6H)-one]"
14,0.33,"CN1CCN(c2ccc(Nc3ncc4c(=O)n(-c5c(Cl)cccc5Cl)nc(-c5ccc(C(=O)O)cc5)c4n3)cc2)CC1 [Example 290, 4-[6-(2,6-dichlorophenyl)-2-{[4-(4-methylpiperazin-1-yl)phenyl]amino}-5-oxo-5,6-dihydropyrimido[4,5-d]pyridazin-8-yl]benzoic acid]"
15,0.38,"CN1CCN(c2ccc(Nc3ncc4c(=O)n(-c5c(Cl)cccc5Cl)nc(-c5ccc(C(=O)N(C)C)cc5)c4n3)cc2)CC1 [Example 291, 4-[6-(2,6-dichlorophenyl)-2-{[4-(4-methylpiperazin-1-yl)phenyl]amino}-5-oxo-5,6-dihydropyrimido[4,5-d]pyridazin-8-yl]-N,N-dimethylbenzamide]"
16,0.48,"CN1CCN(c2ccc(Nc3ncc4c(=O)n(-c5c(Cl)cccc5Cl)nc(-c5ccc(C(=O)NC6CCC6)cc5)c4n3)cc2)CC1 [Example 292, N-cyclobutyl-4-[6-(2,6-dichlorophenyl)-2-{[4-(4-methylpiperazin-1-yl)phenyl]amino}-5-oxo-5,6-dihydropyrimido[4,5-d]pyridazin-8-yl]benzamide]"
17,0.25,"CNC(=O)c1ccc(-c2nn(-c3c(Cl)cccc3Cl)c(=O)c3cnc(Nc4ccc(N5CCN(C)CC5)cc4)nc23)cc1 [Example 293, 4-[6-(2,6-dichlorophenyl)-2-{[4-(4-methylpiperazin-1-yl)phenyl]amino}-5-oxo-5,6-dihydropyrimido[4,5-d]pyridazin-8-yl]-N-methylbenzamide]"
18,629,"CC1(C)CNCc2cc(Nc3ncc4c(=O)n(C5CCCCC5)nc(-c5ccccn5)c4n3)ccc21 [Example 294, 6-cyclohexyl-2-[(4,4-dimethyl-1,2,3,4-tetrahydroisoquinolin-7-yl)amino]-8-(pyridin-2-yl)pyrimido[4,5-d]pyridazin-5(6H)-one]"
19,501,"CC(O)Cn1nc(-c2ccccn2)c2nc(Nc3ccc4c(c3)CNCC4(C)C)ncc2c1=O (stereo not drawn) [Example 295, 2-[(4,4-dimethyl-1,2,3,4-tetrahydroisoquinolin-7-yl)amino]-6-(2-hydroxypropyl)-8-(pyridin-2-yl)pyrimido[4,5-d]pyridazin-5(6H)-one]"
20,0.27,"CN1CCN(c2ccc(Nc3ncc4c(=O)n(-c5c(F)cccc5Cl)nc(-c5ccncc5)c4n3)cc2)CC1 [Example 296, 6-(2-chloro-6-fluorophenyl)-2-{[4-(4-methylpiperazin-1-yl)phenyl]amino}-8-(pyridin-4-yl)pyrimido[4,5-d]pyridazin-5(6H)-one]"
21,0.19,"O=c1c2cnc(Nc3ccc(N4CCNCC4)cc3)nc2c(-c2ccncc2)nn1-c1c(F)cccc1Cl [Example 297, 6-(2-chloro-6-fluorophenyl)-2-{[4-(piperazin-1-yl)phenyl]amino}-8-(pyridin-4-yl)pyrimido[4,5-d]pyridazin-5(6H)-one]"
22,1.8,"CN1CCN(c2ccc(Nc3ncc4c(=O)n(-c5c(F)cccc5Cl)nc(-c5ccncn5)c4n3)cc2)CC1 [Example 298, 6-(2-chloro-6-fluorophenyl)-2-{[4-(4-methylpiperazin-1-yl)phenyl]amino}-8-(pyrimidin-4-yl)pyrimido[4,5-d]pyridazin-5(6H)-one]"
23,0.99,"CCOc1cccc(-c2nn(-c3c(F)cccc3Cl)c(=O)c3cnc(Nc4ccc(N5CCN(C)CC5)cc4)nc23)n1 [Example 299, 6-(2-chloro-6-fluorophenyl)-8-(6-ethoxypyridin-2-yl)-2-{[4-(4-methylpiperazin-1-yl)phenyl]amino}pyrimido[4,5-d]pyridazin-5(6H)-one]"
24,0.12,"Cc1nn(-c2c(Cl)cccc2Cl)c(=O)c2cnc(Nc3ccc4c(c3)CNCC43CC3)nc12 [Example 300, 6-(2,6-dichlorophenyl)-2-(2′,3′-dihydro-1′H-spiro[cyclopropane-1,4′-isoquinolin]-7′-ylamino)-8-methylpyrimido[4,5-d]pyridazin-5(6H)-one]"
25,2.7,"O=c1c2cnc(Nc3ccc(N4CCN(C5CCC5)CC4)cc3)nc2c(-c2ccncc2)nn1-c1c(Cl)cccc1Cl [Example 301, 2-{[4-(4-cyclobutylpiperazin-1-yl)phenyl]amino}-6-(2,6-dichlorophenyl)-8-(pyridin-4-yl)pyrimido[4,5-d]pyridazin-5(6H)-one]"
26,0.61,"CN1CCN(c2ccc(Nc3ncc4c(=O)n(-c5c(F)cccc5Cl)nc(-c5cnn(C)c5)c4n3)cc2)CC1 [Example 302, 6-(2-chloro-6-fluorophenyl)-2-{[4-(4-methylpiperazin-1-yl)phenyl]amino}-8-(1-methyl-1H-pyrazol-4-yl)pyrimido[4,5-d]pyridazin-5(6H)-one]"
27,2.8,"CN1CCN(c2ccc(Nc3ncc4c(=O)n(-c5c(F)cccc5Cl)nc(-c5cccc(O)n5)c4n3)cc2)CC1 [Example 303, 6-(2-chloro-6-fluorophenyl)-8-(6-hydroxypyridin-2-yl)-2-{[4-(4-methylpiperazin-1-yl)phenyl]amino}pyrimido[4,5-d]pyridazin-5(6H)-one]"
28,610,"CN1Cc2cc(Nc3ncc4c(=O)n(C5CCNCC5)nc(-c5ccccn5)c4n3)ccc2C(C)(C)C1 [Example 304, 6-(piperidin-4-yl)-8-(pyridin-2-yl)-2-[(2,4,4-trimethyl-1,2,3,4-tetrahydroisoquinolin-7-yl)amino]pyrimido[4,5-d]pyridazin-5(6H)-one]"
29,840,"CC1(C)CNCc2cc(Nc3ncc4c(=O)n(C5CCNCC5)nc(-c5ccccn5)c4n3)ccc21 [Example 305, 2-[(4,4-dimethyl-1,2,3,4-tetrahydroisoquinolin-7-yl)amino]-6-(piperidin-4-yl)-8-(pyridin-2-yl)pyrimido[4,5-d]pyridazin-5(6H)-one]"
30,50,"CC1(C)CNCc2cc(Nc3ncc4c(=O)n(-c5cccc6ccccc56)nc(-c5ccccn5)c4n3)ccc21 [Example 306, 2-[(4,4-dimethyl-1,2,3,4-tetrahydroisoquinolin-7-yl)amino]-6-(naphthalen-1-yl)-8-(pyridin-2-yl)pyrimido[4,5-d]pyridazin-5(6H)-one]"
